Laboratory results as given in patent US20260072030A1, “RAS BIOSENSORS” (The Regents of the University of California, priority 2022, published 2026).

Key:
Format in all cases: cell-based
EGFR = assay: Reversal of EGF-induced RasAR response by EGFR inhibitor; details: RasAR + mCherry-KRasWT, 100 ng/ml EGF followed by 200 nM AG1478
Excerpt: To determine whether RasAR can detect dynamic Ras activity, we co-expressed the sensor with mCherry-KRasWT in COS-7 cells and stimulated the cells with epidermal growth factor (EGF). […] Consistent with previous studies,26 we observed higher C/Y emission ratios in membrane ruffles following EGF stimulation, indicating enhanced KRas activity in these regions. In addition, consistent with the Golgi localization of Ras,26 we observed an increased activity in the Golgi compartment (FIGS. 2A and 8). […] The EGF-stimulated increases in the emission ratio occurred in both the membrane ruffles as well as the Golgi compartment (FIGS. 2B-2C and 8), with slower kinetics observed at the Golgi (FIG. 7A).
Cells were washed three times with Hanks's balanced salt solution (HBSS, Gibco) prior to imaging. Cells were imaged in HBSS in the dark at 37° C. […] Cells were imaged on a Zeiss Axio Observer Z1 microscope equipped with a 20×/0.8 NA objective and a Hamamatsu Flash 4.0 sCMOS camera, controlled using MicroManager 2.0 software. […] All fluorescence images were background-correcting by rolling circle background subtraction in ImageJ using a rolling-ball circle radius of 350 pixels. Cyan/yellow or yellow/cyan emission ratios were then calculated by dividing the CFP channel values by the CYFRET channel values, or the CYFRET channel values by CFP channel values, respectively. […]

ERK = ERK activity reporter (EKAR4) Y/C emission ratio in COS-7 cells; details: 10 μM, 3 hr
KRasG12C = molecular target: T1, KRasG12C (Homo sapiens, UniProt P01116, G12C)
T1 construct: expressed in transfected cells; host or cells: COS-7

KRasWT = molecular target: T2, KRasWT (Homo sapiens, UniProt P01116); assay: Live-cell Ras inhibitor assay, COS-7 cells co-expressing RasAR and KRasWT control; details: KRasWT controls, 10 μM, 24 hr, vs DMSO
T2 construct: host or cells: COS-7

mCherry-KRasG12C = assay: Ras expression assessed by RFP intensity in COS-7 cells
Src = Src inhibitor pretreatment, EGF-induced HRas activity measured with RasAR sensors in COS-7 cells; details: for effect of pretreatment on EGF-induced response, cytosolic RasAR: RasAR + HRasWT, 1 μM inhibitor
Excerpt: To clarify the regulatory role of Src on HRas at the Golgi, we monitored HRas activity at the Golgi with GA-RasAR in the presence of Src inhibitor PP2.
Phosphorylation of residue Y32 has been implicated in the negative regulation of HRas by Src.31 To verify this mechanism of Src inhibition we co-expressed RasAR with HRasY32F and stimulated with EGF. […] KRas was recently shown to be negatively regulated by Src via dual phosphorylation of Y32 and Y64,28 which negatively impacts multiple steps of the GTPase cycle and impairs binding to effectors. However, the role of Y64 in HRas has not been investigated. To test the hypothesis that phosphorylation of both Y32 and Y64 is involved in Src regulation of HRas, we expressed RasAR and an mCherry-labeled HRas mutant containing Y32F/Y64F mutations and monitored EGF-induced responses in the presence and absence of PP2.
Cells were washed three times with Hanks's balanced salt solution (HBSS, Gibco) prior to imaging. Cells were imaged in HBSS in the dark at 37° C. […] Cells were imaged on a Zeiss Axio Observer Z1 microscope equipped with a 20×/0.8 NA objective and a Hamamatsu Flash 4.0 sCMOS camera, controlled using MicroManager 2.0 software. For time series, images from multiple fields of view were acquired at each time point at 30 sec intervals. RFP was imaged using a 568DF55 excitation filter, a 600DRLP dichroic mirror, and a 653DF95 emission filter. CFP was imaged using a 420DF20 excitation filter, a 455DRLP dichroic mirror, and a 470DF40 emission filter. CYFRET was imaged using a 420DF20 excitation filter, a 455DRLP dichroic mirror, and a 535DF25 emission filter. YFP was imaged using a 495DF10 excitation filter, a 515DRLP dichroic mirror, and a 535DF25 emission filter. Exposure times for each channel were 250-500 ms. All filter sets were controlled by a Lambda 10-2 filter-changer (Sutter Instruments). All fluorescence images were background-correcting by rolling circle background subtraction in ImageJ using a rolling-ball circle radius of 350 pixels. Cyan/yellow or yellow/cyan emission ratios were then calculated by dividing the CFP channel values by the CYFRET channel values, or the CYFRET channel values by CFP channel values, respectively. For the time-series analysis, all values were normalized to the time point prior to drug addition by dividing each value by basal ratio value prior to drug addition. Co-expression experiments were processed using Cell Profiler on background subtracted images and segmented using CYFRET channel images. Individual t½ measurements were acquired using custom script within Matlab.

## COc1cc2ncnc(Nc3cccc(Cl)c3)c2cc1OC [AG1478]
EGFR
  effect on C/Y emission ratio after EGF stimulation: decrease in the C/Y emission ratio

## C=CC(=O)N1CCN(c2ncnc3c(F)c(-c4c(O)cccc4F)c(Cl)cc23)CC1 [ARS1620]
ERK; mCherry-KRasG12C expressing COS-7 cells
  Cohen's d, effect of treatment on EKAR4 Y/C emission ratio: 0.84
ERK; mCherry-KRasWT expressing COS-7 cells
  Cohen's d, effect of treatment on EKAR4 Y/C emission ratio: 0.02
KRasG12C; 10 μM inhibitor
  time over which the C/Y emission ratio continuously declines after treatment: 5 h
KRasG12C; 10 μM, 3 μM, 1 μM, 0.3 μM, 0.1 μM, 24 hr
  concentration dependence of C/Y emission ratio: dose-dependent inhibition of KRasG12C
KRasG12C; 10 μM, 24 hr, vs DMSO
  effect on RasAR C/Y emission ratio: higher C/Y emission ratio in KRasG12C-expressing cells treated with DMSO compared with ARS1620 treatment
KRasWT
  effect on RasAR C/Y emission ratio: no effect of inhibitor treatment
mCherry-KRasG12C; ARS1620 titration experiment, 24 hr
  Cohen's f, RFP intensities across titration treatment groups: 0.06

## CC(C)(C)n1nc(-c2ccc(Cl)cc2)c2c(N)ncnc21 [PP2]
Src; GA-RasAR + mCherry-HRas, vs DMSO, n=300 cells each
  effect of pretreatment on EGF-induced response at the Golgi: enhanced
Src; vs DMSO
  effect of pretreatment on EGF-induced response, cytosolic RasAR: larger EGF-induced response
Src; RasAR + mCherry-HRasY32F, PP2 1 μM, vs control cells
  effect of pretreatment on EGF-induced response, HRasY32F: enhanced response to EGF
Src; RasAR + mCherry-HRasY32F/Y64F, vs control cells, n=180 cells each
  effect of pretreatment on EGF-induced response, HRas Y32F/Y64F: no significant difference
Src; pm-RasAR + mCherry-HRasWT, vs DMSO
  effect of pretreatment on EGF-induced Ras activity at the plasma membrane: did not affect EGF-induced Ras activity

## COc1cc2ncnc(Nc3ccc(Oc4ccccc4)cc3)c2cc1OC [SrcI1]
Src; vs DMSO
  effect of pretreatment on EGF-induced response, cytosolic RasAR: enhanced EGF-induced Ras activity

## C[C@@H]1C[C@@H]([C@H](O)CC2CC(=O)NC(=O)C2)C(=O)[C@@H](C)C1 [cycloheximide]
KRasG12C; ARS1620 10 μM with cycloheximide 100 μg/ml
  effect of inhibiting protein re-synthesis on kinetics of Ras inactivation by ARS1620: did not speed up the kinetics of Ras inactivation
mCherry-KRasG12C; 24-hr timeframe
  effect on KRasG12C expression levels: reduced KRasG12C expression levels
mCherry-KRasG12C; ARS1620 10 μM, cycloheximide 100 μg/ml
  Cohen's d, RFP intensities with and without cycloheximide: 0.36
mCherry-KRasG12C; cycloheximide treatment 24 hr
  Cohen's f, effect of treatment on mCherry-KRasG12C expression by RFP intensity: 1.26
